According to US5369111A, “Modulator agent and use thereof” (University of Vermont, priority 1992, dated 1994):
Entries after “also recorded” stand apart in the source; their conditions may differ. Read-outs that look alike come from different tables or passages of the source.

Experiments:
[1] = system: parental cell lines (S180, RCC-2, RCC-5); test: Modulation of intrinsic resistance in the parental cell lines (S180, RCC-2, RCC-5); type: cell-based, mouse, rat
Procedure: (§1) Mid-exponential cultures were used for all assays. The RCC-2 and RCC-5 cell lines were seeded into 24-well plates at 2×10^4 cells/well and allowed to attach to the substratum for 16-18 h prior to treatment. The S180 cell lines were seeded into culture tubes at 1×10^5 cells/ml and treated immediately. Cytotoxicity was determined by quantitation of population growth after 72 h incubation by electronic particle counter (Coulter Electronics, Hialeah, Fla.). The human tumor cell lines were used in a clonogenic assay for cytotoxicity. Cells were seeded at 300 cells/dish, incubated overnight and then treated. Colonies were scored 7-11 days later. In all assays of analog modulation of drug sensitivity, the analog was added minutes prior to the addition of cytotoxic drug.
(§2) *calculated as the IC50 of the drug alone divided by the IC50 o
(§3) the [drug modulator] combination. Data are presented from tretments with
(§4) the nontoxic concentration limit of each analog as noted.

[2] = Inhibition of population growth (cytotoxicity), rat colon adenocarcinoma RCC-2; type: cell-based; details: rat, rcc-2 cells; RCC-2; Table III; read-out: Modulator concentration (nontoxic concentration limit of the analog)
From the text: (§5) The analogs were examined in a panel of tumor cell lines of both intrinsic and acquired drug resistance, as described in Table 1. The rat colon adenocarcinoma cell lines RCC-2 and RCC-5 (ref. 13) were maintained in Ham's F12 medium supplemented with 5% heat-inactivated, fetal bovine serum (Sterile Systems. Hyclone, Logan, Utah). The two rat colon cancer cell lines differ in their degree of cellular differentiation; whereas the RCC-2 cell line is undifferentiated, the RCC-5 cell line is highly mucinous. The human epidermoid carcinoma cell line KB-3-1 and its MDR variant KB-Vl, selected by VBL treatment (ref. 14; courtesy of M. Gottesman. National Cancer Institute), was maintained in DMEM medium supplemented with 10%, heat-inactivated, fetal bovine serum. The murine sarcoma cell line […] and its MDR strains A3 and A10 selected by ADM treatment (ref. 15; courtesy of T. Tritton, Dept. Pharmacology, Univ. Vermont). were maintained in DMEM medium supplemented with 10% heat-inactivated, horse serum (Hazelton Biolog. Lenexa, Kans.). Stock cultures were subcultured twice weekly upon reaching the late exponential phase of population growth: population doubling times were 18-24 h. Antibiotics were not used in stock or experimental cultures. The MDR cell strains were grown in drug-free media for 48 h prior to experimental use.
as §1

[3] = system: S180 MDR cell strains A3 and A10; test: Modulation of acquired drug resistance in the S180 MDR cell strains A3 and A10; type: cell-based, murine
Procedure: as §1
(§6) To evaluate the ability of vindoline and the two diastereoisomeric VBL analogs to modulate the MDR phenotype (acquired resistance) of the A3 and A10 cell stains, we determined the concentration of compound required to restore drug sensitivities to parental levels. This was done by exposing the MDR cell line to a concentration range of modulator in the presence VBL, VCR and ADM at the respective IC70s of the parental cell line. The cytotoxicity curves for A3 and A10 cells, shown in FIG. 5, are distinctive among the three vinca alkaloids examined. In each cell line, there was a minimum concentration of modulator that elicited 70% growth inhibition for each drug - i.e. the reversing concentration.
FIG. 5 represents the modulation of multidrug resistance in the MDR cell strains by the vinca alkaloids. Vindoline (A), vincovaline (B), or the analog C-20'-deoxy vincovaline (C) was added, at various concentrations, to A3 (closed symbols) or A10 (opened symbols) cell cultures containing the parental IC70 of each drug: 2.0×10^-7 M. ADM (circles: 1.5×10^-8 M VBL (triangles); and 4.5×10^-8 M; VCR (squares). Population growth was determined 72 hours later.
FIG. 6 represents the relationship between cellular drug resistance level and the minimal modulator concentration required for complete reversal of drug resistance. The drugs examined were ADM (o), VBL (Δ), and VCR (.quadrature.). The amount (concentration) of modulator, necessary to reverse each level of drug resistance contained in the A3 and A10 cell lines, was determined from data such as those of FIG. 5. The values presented were averaged from duplicate samples of two separate experiments, S.D.<15% of the mean. The arrows denote the non-toxic concentration limit for the modulator; in the case of Vincovaline this value is dependent on the MDR cell strain, 2×10^-5 M, A3; 5×10^-5 M. A10.
FIG. 11 represents the modulation of multidrug resistance in the S180 MDR cell strains A3 and A10. The cellular drug resistance level is plotted against the minimal concentration of C-20'-deoxy deethyl vincovaline required for the complete reversal of drug resistance to ADM (o), VBL (Δ), and VCR (.quadrature.). In the case of high level ADM resistance […], the sensitivity of the cells was restored to 80% of the parental value. The arrow denotes the non-toxic concentration limit of the analog.

[4] = system: RCC-5 cells; test: Modulation of intrinsic drug resistance, RCC-5; type: cell-based, rat; details: RCC-5; IC50 drug alone / IC50 drug + modulator, at nontoxic concentration limit
Procedure: as §1, §2, §3, §4
FIG. 9 represents the modulation of VCR sensitivity in the RCC-12 (A) and RCC-5 (B) cell lines by the analog C-20'-deoxy deethyl vincovaline. Population growth was determined after 72 hours incubation in the absence (o), or presence of 10 μM (o), 20 μM (Δ), or 50 μM of analog. Data presented are from a typical experiment.

[5] = Inhibition of population growth (cytotoxicity), rat colon adenocarcinoma RCC-5; type: cell-based; details: rat, rcc-5 cells; RCC-5; Table III; read-out: Modulator concentration (nontoxic concentration limit of the analog)
From the text: as §5, §1

[6] = system: S180 cells, parental; test: Modulation of intrinsic drug resistance, parental S180; type: cell-based, murine; details: for Maximum sensitization of parental cells by modulator, drug ADM / Maximum sensitization of parental cells by modulator, drug VBL / Maximum sensitization of parental cells by modulator, drug VCR: S180, IC50 drug alone / IC50 drug + modulator, at nontoxic concentration limit; for modulation of sensitivity of parental S180 cells to VBL, VCR and ADM (in words): all three drugs
Procedure: as §1
The ability of the compounds to modulate drug sensitivity in parental cells was studied over a range of concentrations of each compound, from 10^-6 M to the non-toxic (IC10-20) or solubility limit. […] From such experiments, we determined a sensitivity index derived from the IC50 of the drug without modulator treatment divided by the drug IC50 at each concentration of modulator.
When the sensitivity index for each drug, VBL, VCR and ADM is plotted versus the modulator concentration (FIG. 4), we can compare the relative potencies of the compounds as modulators of drug toxicity to the parental S180 cells.
as §2, §3
FIG. 4 represents the potency of the vinca alkaloid compounds as modulators of drug sensitivity in S180 cells. The enhancement of sensitivity was calculated as the sensitivity index=IC50 of the drug alone divided by the IC50 of the drug+modulator. The IC50s for ADM (o) VBL (Δ), or VCR (.quadrature.) were determined over a concentration range of each modulator from data such as those depicted in FIG. 3. The values presented were averaged from duplicate samples of two separate experiments, S.D. <15% of the mean.

[7] = system: RCC-2 cells; test: Modulation of intrinsic drug resistance, RCC-2; type: cell-based, rat; details: IC50 drug alone / IC50 drug + modulator, at nontoxic concentration limit
Procedure: as §1, §2, §3, §4

[8] = system: S180/MDR cell system and rat colon cancer cell lines; test: Cytotoxicity in the S180/MDR cell system and the rat colon cancer cell lines; type: cell-based, mouse; details: S-180, 72 h
From the text: as §5, §1

[9] = system: S180/A10 cells; test: Modulator potency in MDR cells: reversal of acquired resistance, S180/A10; type: cell-based, murine; details: for Modulator potency in MDR cells (minimal concentration restoring parental drug sensitivity), ADM: drug resistance level 90; for Modulator potency in MDR cells (minimal concentration restoring parental drug sensitivity), VBL: drug resistance level 10
Procedure: as §1, §6
(§7) *The minimal concentration of modulator required to restore the drug
(§8) sensitivity of S180/MDR cell strains to that of parental S180 cells. Data
(§9) are the averages of 2-3 separate experiments, S.D. ≤20%.

[10] = Inhibition of population growth (cytotoxicity), S180 sarcoma, parental; type: cell-based, mouse; details: mouse, s180 cells; S180; Table III; read-out: Modulator concentration (nontoxic concentration limit of the analog)
From the text: as §5, §1

[11] = system: S180/A3 cells; test: Modulator potency in MDR cells: reversal of acquired resistance, S180/A3; type: cell-based, murine; details: for Modulator potency in MDR cells (minimal concentration restoring parental drug sensitivity), VBL: drug resistance level 3; for Modulator potency in MDR cells (minimal concentration restoring parental drug sensitivity), VCR: drug resistance level 7
Procedure: as §1, §6, §7, §8, §9

[12] = system: S180 cell system (S180, A3, A10); test: Inherent cytotoxicity in the S180 cell system (S180, A3, A10); type: cell-based, murine
From the text: as §5, §1
FIG. 2 represents the toxicity of the vinca alkaloid compounds to population growth. Vindoline, vincovaline or the analog, C-20'-deoxy vincovaline was added, at various concentrations, to S180 (.cndot.), A3 (o), or A10 (Δ) cell cultures. The population cell number was determined 72 hours later.

| Structure (SMILES) | modulation of intrinsic cellular resistance to ADM and/or VCR (in words) [1] | effect on the sensitivity of parental cells to VBL (in words) [1] | MNTC at 72 h [2] | restoration of parental drug sensitivity in MDR cells (in words) ([3]; VBL, VCR, ADM) | Maximum sensitization of parental cells by modulator, drug ADM [4] | Maximum sensitization of parental cells by modulator, drug VBL [4] | Maximum sensitization of parental cells by modulator, drug VCR [4] | MNTC at 72 h [5] | Maximum sensitization of parental cells by modulator, drug ADM [6] | Maximum sensitization of parental cells by modulator, drug VBL [6] | Maximum sensitization of parental cells by modulator, drug VCR [6] | Maximum sensitization of parental cells by modulator, drug VCR [7] | IC50 [8] | Modulator potency in MDR cells (minimal concentration restoring parental drug sensitivity), ADM [9] | Modulator potency in MDR cells (minimal concentration restoring parental drug sensitivity), VBL [9] | MNTC at 72 h [10] | Modulator potency in MDR cells (minimal concentration restoring parental drug sensitivity), VBL [11] | Modulator potency in MDR cells (minimal concentration restoring parental drug sensitivity), VCR [11] | also measured |
| --- | --- | --- | --- | --- | --- | --- | --- | --- | --- | --- | --- | --- | --- | --- | --- | --- | --- | --- | --- |
| CC[C@]12C=CCN3CC[C@@]4(c5cc([C@@]6(C(=O)OC)C[C@H]7CCCN(CCc8c6[nH]c6ccccc86)C7)c(OC)cc5N(C)[C@H]4[C@@](O)(C(=O)OC)[C@@H]1OC(C)=O)[C@@H]32 [analog n° 330, C-14'-epi-C-20'-deethyl C-20'-deoxy-vinblastine] | modulated intrinsic cellular resistance to ADM and/or VCR | less effect on the sensitivity of parental cells to VBL | 10 µM | full restoration of parental drug sensitivity was achieved for VBL and low level VCR resistance, only | 2.2 | 2.0 | 6.0 | 10 µM | 4.2 | 1.0 | 2.0 | 2.0 | ≥ 5 µM | no effect | 18. μM | 20 µM | 5.2 µM | 11. μM | Maximum sensitization of parental cells by modulator, drug ADM [7]: 1.0 |
| CC[C@]12C=CCN3CC[C@@]4(c5cc([C@]6(C(=O)OC)C[C@@H]7CCCN(CCc8c6[nH]c6ccccc86)C7)c(OC)cc5N(C)[C@H]4[C@@](O)(C(=O)OC)[C@@H]1OC(C)=O)[C@@H]32 [analog n° 331, C-16' epi-C-20'-deoxy-C-20'-deethylvinblastine] | modulated intrinsic cellular resistance to ADM and/or VCR | less effect on the sensitivity of parental cells to VBL | 10 µM | full restoration of parental drug sensitivity was achieved for VBL and low level VCR resistance, only | 3.5 | 1.0 | 2.0 | 20 µM | 3.4 | 1.0 | 2.5 | 2.0 | ≥ 5 µM | no effect | 34. μM | 50 µM | 5.0 µM | 10. μM | – |
| CCC12C=CCN3CC[C@@]4(c5ccc(OC)cc5N(C)[C@H]4[C@@](O)(C(=O)OC)[C@@H]1OC(C)=O)[C@@H]32 (stereo partly drawn) [vindoline, reference compound] | – | – | – | – | – | – | – | – | – | – | – | – | – | – | – | – | – | – | modulation of cellular resistance to VBL, VCR and ADM in MDR cell strains (in words) ([3]; A3 and A10): modulators of cellular resistance to VBL, VCR and ADM; relation of reversing concentration to degree of drug resistance (in words) ([3]; A3 and A10, VBL, VCR, ADM): This correllation was not observed; modulation of sensitivity of parental S180 cells to VBL, VCR and ADM (in words) [6]: sensitized S180 cells to all three drugs with a similar dependence on its concentration; also recorded: sensitized the parental S180 cells to all three drugs; modulation of sensitivity of parental S180 cells to VBL, VCR and ADM (in words) ([6]; listed as Vindoline): no evidence of selective modulation; reversal of high level ADM resistance (in words) ([9]; A10 cells, 90 fold ADM resistance): limited in this activity by their own cytoxicity in the MDR cell lines; inherent cytotoxicity / resistance profile (in words) [12]: equitoxic to parental and MDR cell lines; IC50 ([12]; Mus musculus, S-180, S180 parental and MDR cell lines, read-out: IC50 (inhibition of cell growth)): 40 µM; inherent cytotoxicity / resistance profile (in words) ([12]; S180, A3, A10): inhibited the growth of the parental and MDR cell strains with a similar dependence on concentration |
